# From patent US20140235588A1, “SUBSTITUTED 1H-PYRAZOL-1,2,4-OXADIAZOLE DERIVATIVES AS SPHINGOSINE RECEPTOR MODULATORS” (Allergan, Inc., priority 2013, published 2014)
# Biological target: T1, human S1P1 receptor (Homo sapiens, UniProt P21453)
# T1 construct: expressed in transfected cells; membranes used
# Assay: GTP γ35S binding assay for S1P1 activity
# Format: biochemical
# Details: membranes of cells stably expressing the S1P1 receptor, agonist potency
# Description: Compounds of the invention were tested for S1P1 activity using the GTP γ^35S binding assay. These compounds may be assessed for their ability to activate or block activation of the human S1P1 receptor in cells stably expressing the S1P1 receptor.
# GTP γ^35S binding was measured in the medium containing (mM) HEPES 25, pH 7.4, MgCl2 10, NaCl 100, dithitothreitol 0.5, digitonin 0.003%, 0.2 nM GTP γ^35S, and 5 μg membrane protein in a volume of 150 μl. Test compounds were included in the concentration range from 0.08 to 5,000 nM unless indicated otherwise. Membranes were incubated with 100 μM 5′-adenylylimmidodiphosphate for 30 min, and subsequently with 10 μM GDP for 10 min on ice.
# Drug solutions and membrane were mixed, and then reactions were initiated by adding GTP γ^35S and continued for 30 min at 25° C. Reaction mixtures were filtered over Whatman GF/B filters under vacuum, and washed three times with 3 mL of ice-cold buffer (HEPES 25, pH7.4, MgCl2 10 and NaCl 100). Filters were dried and mixed with scintillant, and counted for ^35S activity using a β-counter. Agonist-induced GTP γ^35S binding was obtained by subtracting that in the absence of agonist. Binding data were analyzed using a non-linear regression method. In case of antagonist assay, the reaction mixture contained 10 nM S1P in the presence of test antagonist at concentrations ranging from 0.08 to 5000 nM.
# T1 sequence (P21453 whole entry): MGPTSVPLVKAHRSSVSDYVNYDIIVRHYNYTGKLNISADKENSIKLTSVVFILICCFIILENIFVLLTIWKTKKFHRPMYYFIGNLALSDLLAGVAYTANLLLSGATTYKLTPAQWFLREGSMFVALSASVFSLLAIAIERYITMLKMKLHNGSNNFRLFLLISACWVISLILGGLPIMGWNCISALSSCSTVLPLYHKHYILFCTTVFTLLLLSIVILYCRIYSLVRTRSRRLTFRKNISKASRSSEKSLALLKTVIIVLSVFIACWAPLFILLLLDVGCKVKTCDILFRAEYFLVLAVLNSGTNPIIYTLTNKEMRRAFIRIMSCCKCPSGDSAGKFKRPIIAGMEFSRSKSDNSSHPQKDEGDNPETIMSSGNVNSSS
row,EC50,Structure (SMILES)
1,32 nM,"Cn1nc(-c2nc(-c3ccc(CNCCCP(=O)(O)O)cc3)no2)cc1-c1ccccc1 [Compound 1, [3-({4-[5-(1-Methyl-5-phenyl-1H-pyrazol-3-yl)-1,2,4-oxadiazol-3-yl]benzyl}amino)propyl]phosphonic acid]"
2,658 nM,"Cn1nc(-c2nc(-c3ccc(CNCCC(=O)O)cc3)no2)cc1-c1ccccc1 [Compound 2, 3-({4-[5-(1-methyl-5-phenyl-1H-pyrazol-3-yl)-1,2,4-oxadiazol-3-yl]benzyl}amino)propanoic acid]"
